Several values for one entry are separate records, joined by “and”; a condition that tells them apart may be missing. Identical values can stand only once. Like-named read-outs stand apart in the source and are kept apart here.
What was measured:
[1] = Determination of the brain-to-plasma ratio after intraperitoneal administration (plasma and brain homogenate levels by LC-MS/MS); type: in vivo, male CD-1 mice; set-up: Brain Tissue Homogen. Conc / Brain Tissue Conc: unit not given here
Protocol: (§1) In this study, the brain-to-plasma ratio of Compound 2 and Compound 3 was evaluated after intraperitoneal dosing in fasted male CD-1 mice. Test compounds were dosed at 50 mg/kg in sterile water for injection. Plasma and brain homogenate levels were determined at 1 and 3 hours post dose by LC-MS/MS.
The dosing solution was diluted in triplicate into mouse plasma and analyzed in parallel with the study samples. The nominal dosing solution concentration was used in all calculations. All concentrations are expressed as […] of the free drug. All data are expressed as ng/mL (equivalent to ng/g for calculation of brain:plasma ratio) of the free drug. Samples that were below the limit of quantitation were not used in the calculation of averages.
Brain-to-plasma ratios were determined by dividing the brain concentration in ng/g by the plasma concentration in ng/g.
Brain samples were homogenizcd with a Virsonic 100 ultrasonic homogenizer. Each brain sample was first weighed, and then an appropriate volume of 20:80 methanol:water was added to make a 4 mL/1 gram sample. Samples were then homogenized on ice, and stored frozen until analysis.
Standards samples were prepared in either CD-1 Mouse plasma containing K2EDTA as an anticoagulant or CD-1 mouse brain homogenate. Working solutions (200 μg/mL and/or 20 μg/mL for each test compound) was prepared in 50:50 ACN:water. Then, a nine-point calibration curve was prepared at concentrations of 2000, 1500, 1000, 500, 100, 50, 20, 10, and 5 ng/mL of each test compound by serial dilution; or for a high-sensitivity method, another nine point calibration curve was prepared at concentrations of 200, 150, 100, 50, 10, 5, 2, 1, and 0.5 ng/mL of each test compound by serial dilution. Standard samples were treated identically to the study samples.
Plasma and brain homogenate samples were extracted via acetonitrile precipitation on a Tomtec Quadra 96-Model 320 liquid handling system in a 96-well plate format.

[2] = Observations and adverse reactions after intraperitoneal administration; type: in vivo, CD-1 mice; conditions: IP 50 mg/kg in sterile water for injection
Protocol: as §1

[3] = IP 50 mg/kg, 1.0 hr post dose, individual mouse, 50 mg/kg
[4] = IP 50 mg/kg, 3.0 hr post dose, individual mouse, 50 mg/kg
[5] = male, CD-1, mouse, brain/plasma, ip, 50 mg/kg, 1 hour post dose, mean of mice, read-out: Average B:P Ratio

| SMILES | B:P Ratio [1, 3] | Brain Tissue Conc [1, 3] | Plasma Conc [1, 3] | Brain Tissue Homogen. Conc ([1]; IP 50 mg/kg, 3.0 hr post dose, individual mouse) | Plasma Conc [1, 4] | concentration at 3 h ([1]; male, CD-1, mouse, brain, ip, 50 mg/kg, 3 hours post dose, read-out: brain tissue concentrations (BLOQ)) [ng/mL] | Kp at 1 h [1, 5] | adverse effects after intraperitoneal administration [2] | Average B:P Ratio ([1]; IP 50 mg/kg, 1 hour post dose, mean of mice, 50 mg/kg) | B:P Ratio ([1]; IP 50 mg/kg, 1.0 hr post dose, individual mouse) | Average B:P Ratio ([1]; IP 50 mg/kg, 3 hours post dose, mean of mice, 50 mg/kg) | B:P Ratio [1, 4] | Kp at 1 h ([1]; male, CD-1, mouse, brain/plasma, ip, 50 mg/kg, 1.0 hr post dose, individual mouse, read-out: B:P Ratio) | Kp at 3 h ([1]; male, CD-1, mouse, brain/plasma, ip, 50 mg/kg, 3 hours post dose, mean of mice, read-out: Average B:P Ratio) | concentration at 1 h ([1]; male, CD-1, mouse, plasma, ip, 50 mg/kg, 1.0 hr post dose, individual mouse, read-out: Plasma Conc) [ng/mL] |
| --- | --- | --- | --- | --- | --- | --- | --- | --- | --- | --- | --- | --- | --- | --- | --- |
| COCCNC(=O)c1cc(C(=O)NCCOC)cc(C(=O)NCCOC)c1 [Compound 2, N^1,N^3,N^5-tris(2-methoxyethyl)benzene-1,3,5-tricarboxamide] | 0.01 and 0.1 | 4.19 | 675 ng/mL and 30.7 ng/mL and 41.8 ng/mL | BLQ | 3.13 ng/mL and 2.22 ng/mL and 16.5 ng/mL | < 0.5 | 0.056 | No adverse effects were observed |  |  |  |  |  |  |  |
| COCCN(C)C(=O)c1cc(C(=O)N(C)CCOC)cc(C(=O)N(C)CCOC)c1 [Compound 3, N^1,N^3,N^5-tris(2-methoxyethyl)-N^1,N^3,N^5-trimethylbenzene-1,3,5-tricarboxamide] |  |  | 3010 ng/mL and 2440 ng/mL |  | 17.2 ng/mL and 36 ng/mL and 71.7 ng/mL |  | 0.038 ± 0.004 | No adverse effects were observed | 0.038 | 0.04 | 0.525 | 0.78 and 0.24 and 0.55 | 0.04 | 0.525 ± 0.275 | 2770 |

— patent US9828332B2, “Non-peptide BDNF neurotrophin mimetics” (PHARMATROPHIX, INC., priority 2013, dated 2017)
